Legend:
Assay in all cases: relative viability (nuclei count vs DMSO), 5 days (fraction); higher = more cells survive
RU-SKI 43 + Foretinib = compound: CC[C@@H](C)CNCC(=O)N1CCC2=C([C@@H]1COC3=CC=CC(=C3)C)C=CS2 [RU-SKI 43] + COc1cc2c(Oc3ccc(NC(=O)C4(C(=O)Nc5ccc(F)cc5)CC4)cc3F)ccnc2cc1OCCCN1CCOCC1 [Foretinib] (partner 0.25 µM)
Summary of the method: (§1)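 For relative viability, nuclei counts in treated wells were divided by those in vehicle wells. Lung cancer cell lines had been pin-tool dosed in 1536-well plates the day after seeding and cultured for 5 days, then fixed and stained in one step (final 0.05% Triton X-100, 1% formaldehyde, 1 ug/ml Hoechst) and imaged at 4×. Doses were one drug alone or a fixed anchor-drug dose plus five library-drug doses (not always all listed) in √10 steps, and values are duplicate-plate medians.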

Irinotecan + Luminespib = compound: CCc1c2c(nc3ccc(OC(=O)N4CCC(N5CCCCC5)CC4)cc13)-c1cc3c(c(=O)n1C2)COC(=O)[C@]3(O)CC [Irinotecan] + CCNC(=O)c1noc(-c2cc(C(C)C)c(O)cc2O)c1-c1ccc(CN2CCOCC2)cc1 [Luminespib] (partner 0.01 µM)
Summary of the method: as §1

Irinotecan + Foretinib = compound: CCc1c2c(nc3ccc(OC(=O)N4CCC(N5CCCCC5)CC4)cc13)-c1cc3c(c(=O)n1C2)COC(=O)[C@]3(O)CC [Irinotecan] + COc1cc2c(Oc3ccc(NC(=O)C4(C(=O)Nc5ccc(F)cc5)CC4)cc3F)ccnc2cc1OCCCN1CCOCC1 [Foretinib] (partner 0.25 µM)
Summary of the method: as §1

MK-8033 + AZD7762 = compound: Cn1cc(-c2cnc3ccc4ccc(CS(=O)(=O)NCc5ccccn5)cc4c(=O)c3c2)cn1 [MK-8033] + NC(=O)Nc1cc(-c2cccc(F)c2)sc1C(=O)N[C@H]1CCCNC1 [AZD7762] (partner 0.2 µM)
Summary of the method: as §1

Row | Cell Line | relative viability (RU-SKI 43 + Foretinib; first compound 0.1 µM) | relative viability (RU-SKI 43 + Foretinib; first compound 0.3162 µM) | relative viability (RU-SKI 43 + Foretinib; first compound 1 µM) | relative viability (RU-SKI 43 + Foretinib; first compound 3.162 µM) | relative viability (RU-SKI 43 + Foretinib; first compound 10 µM) | relative viability (Irinotecan + Luminespib; first compound 0.6325 µM) | relative viability (Irinotecan + Luminespib; first compound 2 µM) | relative viability (Irinotecan + Luminespib; first compound 6.325 µM) | relative viability (Irinotecan + Luminespib; first compound 20 µM) | relative viability (Irinotecan + Foretinib; first compound 0.6325 µM) | relative viability (Irinotecan + Foretinib; first compound 2 µM) | relative viability (Irinotecan + Foretinib; first compound 6.325 µM) | relative viability (Irinotecan + Foretinib; first compound 20 µM) | relative viability (MK-8033 + AZD7762; first compound 0.02 µM) | relative viability (MK-8033 + AZD7762; first compound 0.06325 µM) | relative viability (MK-8033 + AZD7762; first compound 0.2 µM) | relative viability (MK-8033 + AZD7762; first compound 0.6325 µM) | relative viability (MK-8033 + AZD7762; first compound 2 µM)
1 | NCI-H647 | 1.39 | 1.42 | 1.25 | 1.17 | 1.25 | 0.152 | 0.212 | 0.157 | 0.119 | 0.986 | 0.742 | 0.174 | 0.132 | 0.59 | 0.452 | 0.408 | 0.471 | 0.549
2 | LC-2-ad | 0.929 | 0.922 | 0.908 | 1.02 | 0.838 | 0.685 | 0.542 | 0.337 | 0.233 | 0.73 | 0.621 | 0.288 | 0.235 | 0.832 | 0.783 | 0.78 | 0.843 | 0.827
3 | EKVX | 0.735 | 0.712 | 0.876 | 0.719 | 0.499 | 0.81 | 0.667 | 0.379 | 0.154 | 0.199 | 0.726 | 0.529 | 0.164 | 0.695 | 0.615 | 0.693 | 0.647 | 0.63
4 | NCI-H596 | 0.955 | 0.676 | 0.886 | 0.989 | 0.931 | 0.884 | 0.963 | 0.71 | 0.801 | 0.841 | 0.783 | 0.621 | 0.632 | 1.04 | 0.995 | 1.01 | 1.04 | 0.985
5 | NCI-H322M | 0.939 | 1.09 | 1.11 | 1.03 | 0.892 | 0.844 | 0.777 | 0.529 | 0.181 | 0.971 | 0.882 | 0.491 | 0.368 | 0.535 | 0.47 | 0.518 | 0.609 | 0.697
6 | NCI-H358 | 0.631 | 0.749 | 0.829 | 0.776 | 0.489 | 0.285 | 0.152 | 0.151 | 0.143 | 0.563 | 0.476 | 0.195 | 0.134 | 0.541 | 0.347 | 0.431 | 0.428 | 0.458
7 | NCI-H1395 | 0.865 | 0.985 | 1.05 | 1.01 | 1 | 0.76 | 0.651 | 0.388 | 0.534 | 0.841 | 0.592 | 0.498 | 0.495 | 0.397 | 0.35 | 0.381 | 0.383 | 0.389
8 | NCI-H1993 | 0.747 | 0.889 | 0.786 | 0.801 | 0.729 | 0.784 | 0.745 | 0.667 | 1.58 | 0.769 | 0.663 | 0.706 | 0.644 | 0.657 | 0.679 | 0.584 | 0.529 | 0.407
9 | CAL-12T | 1.05 | 1.31 | 1.09 | 1.18 | 1.06 |  | 0.695 | 0.2 | 0.253 |  | 0.924 | 0.398 | 0.293 | 0.594 | 0.66 | 0.59 | 0.573 | 0.567
10 | ChaGo-K-1 | 0.854 | 1.07 | 0.98 | 0.862 | 0.818 | 0.309 | 0.332 | 0.23 | 0.282 | 0.65 | 0.367 | 0.255 | 0.248 | 0.872 | 0.921 | 0.857 | 0.932 | 0.82
11 | NCI-H2347 | 1.04 | 1.04 | 1.34 | 0.842 | 1.06 | 0.355 | 0.365 | 0.284 | 0.321 | 0.53 | 0.662 | 0.41 | 0.665 | 0.717 | 0.784 | 0.68 | 0.722 | 0.831
12 | LU99A | 0.86 | 0.99 | 0.815 | 0.742 | 0.731 | 0.174 | 0.184 | 0.206 | 0.207 | 0.366 | 0.253 | 0.187 | 0.225 | 0.522 | 0.27 | 0.367 | 0.458 | 0.317
13 | PC-3 [JPC-3] | 1.02 | 1.04 | 1.11 | 1.06 | 0.976 | 0.642 | 0.431 | 0.334 | 0.36 | 0.912 | 0.667 | 0.323 | 0.368 | 0.705 |  | 0.656 | 0.843 | 0.782
14 | HARA | 1.06 | 1.25 | 1.01 | 1.25 | 1.13 | 0.0995 | 0.29 | 0.147 | 0.111 | 0.315 | 0.174 | 0.116 | 0.127 | 0.471 | 0.268 | 0.263 | 0.303 | 0.438
15 | HCC-827 | 1.01 | 1.11 | 1.11 | 1.07 | 1.01 | 0.289 | 0.501 | 0.165 | 0.104 | 0.637 | 0.324 | 0.207 | 0.175 | 0.259 |  | 0.196 | 0.207 | 0.238
16 | LXF-289 | 0.934 | 1.03 | 1.05 | 1.09 | 0.97 | 0.592 | 0.288 | 0.176 | 0.208 | 1.05 | 0.615 | 0.167 | 0.2 | 1.15 | 1.02 | 0.958 | 1.18 | 1.08

Source: the supplement of paper PMC10307832
